The values below come from article PMC3504309 (ChemMedChem, 2011).

In this experiment the test system is human K562 cells. Briefly: Human K562 growth inhibition assay. The format is cell-based. The note with it: for Antiproliferative effect on growth of human K562 cells (in words): 333 μM was the highest concentration tested; for IC50: Homo sapiens, K562, 48 h, read-out: Growth inhibition of human K562 cells IC50.

A word on the IC50: it is the concentration that gives 50% inhibition. For the molecule `CO[C@@H](C(=O)NCC1CCCN(C(=O)C(C)C)C1)[C@H](O)[C@@H](O)[C@H](O)/C=C/C(C)(C)C` (stereo partly drawn) [Compound 4, (2R,3R,4S,5R,E)-3,4,5-trihydroxy-N-((1-isobutyrylpiperidin-3-yl)methyl)-2-methoxy-8,8-dimethylnon-6-enamide], the “Antiproliferative effect on growth of human K562 cells (in words)” value (from here on “Antiproliferative effect on growth”) was “no or weak activity” and the IC50 is > 333 µM.

As for `CO[C@@H](C(=O)NCC1CCCN(C(=O)C2CC2)C1)[C@H](O)[C@@H](O)[C@H](O)/C=C/C(C)(C)C` (stereo partly drawn) [Compound 5, (2R,3R,4S,5R,E)-N-((1-(cyclopropanecarbonyl)piperidin-3-yl)methyl)-3,4,5-trihydroxy-2-methoxy-8,8-dimethylnon-6-enamide], the “Antiproliferative effect on growth” value is “no or weak activity” and the IC50 is > 333 µM.

For `CO[C@@H](C(=O)NCCC(c1ccccc1)c1ccco1)[C@H](O)[C@@H](O)[C@H](O)/C=C/C(C)(C)C` (stereo partly drawn) [Compound 6, (2R,3R,4S,5R,E)-N-(3-(furan-2-yl)-3-phenylpropyl)-3,4,5-trihydroxy-2-methoxy-8,8-dimethylnon-6-enamide], the “Antiproliferative effect on growth” value is “low and reproducible activity”; the IC50 came out at 79.6 µM.

Regarding `CO[C@@H](C(=O)NCCC(c1ccc(F)cc1)c1ccco1)[C@H](O)[C@@H](O)[C@H](O)/C=C/C(C)(C)C` (stereo partly drawn) [Compound 7, (2R,3R,4S,5R,E)-N-(3-(4-fluorophenyl)-3-(furan-2-yl)propyl)-3,4,5-trihydroxy-2-methoxy-8,8-dimethylnon-6-enamide], the “Antiproliferative effect on growth” value was “low and reproducible activity”; the IC50 amounted to 96.5 µM.

In the case of `CO[C@@H](C(=O)NC1Cc2ccccc2C1)[C@H](O)[C@@H](O)[C@H](O)/C=C/C(C)(C)C` [Compound 8, (2R,3R,4S,5R,E)-N-(2,3-dihydro-1H-inden-2-yl)-3,4,5-trihydroxy-2-methoxy-8,8-dimethylnon-6-enamide], the “Antiproliferative effect on growth” value is on record as “no or weak activity” and the IC50 is > 333 µM.

Regarding `CO[C@@H](C(=O)NCC(N)=O)[C@H](O)[C@@H](O)[C@H](O)/C=C/C(C)(C)C` [Compound 9, (2R,3R,4S,5R,E)-N-(2-amino-2-oxoethyl)-3,4,5-trihydroxy-2-methoxy-8,8-dimethylnon-6-enamide], the “Antiproliferative effect on growth” value was “no or weak activity” and the half-inhibitory concentration (IC50) was > 333 µM.

For the molecule `CO[C@@H](C(=O)NCCOc1c(C)cc(C)cc1C)[C@H](O)[C@@H](O)[C@H](O)/C=C/C(C)(C)C` [Compound 10, (2R,3R,4S,5R,E)-3,4,5-trihydroxy-N-(2-(mesityloxy)ethyl)-2-methoxy-8,8-dimethylnon-6-enamide], the “Antiproliferative effect on growth” value was “low and reproducible activity”; the IC50 was 37.8 µM.
